# Data from BindingDB's records for PubMed 35063895 (Tokyo Medical and Dental University, 2022).
# “And” between values parts separate entries of the source, which are not always exact repeats. Equal values may be shown once.
# Experiment: CD4 mimetic activity at gp120 in HIV-1 KP-5mvcR infected in human TZM-bl cells assessed as inhibition of viral entry by measuring reduction in RLU by single round assay
row,IC50,SMILES
1,5.1 µM,CC1(C)CC(NC(=O)C(=O)Nc2ccc(F)nc2)CC(C)(C)N1
2,0.29 µM and 1.5 µM,N=C(N)NCCCCC(=O)NCCN1CCC(NC(=O)C(=O)Nc2ccc(Cl)cc2)CC12CCCCC2 (stereo not drawn)
3,6.7 µM,COCCOCCOCCOCCOCCOCCOCCOCCOCCOCCOCCOCCNC(=O)CCC(=O)N[C@@H](CCCNC(=N)N)C(=O)NCCN1CCC(NC(=O)C(=O)Nc2ccc(Cl)cc2)CC12CCCCC2 (stereo partly drawn)
4,> 100 µM,COCCOCCOCCOCCOCCOCCOCCOCCOCCOCCOCCOCCNC(=O)CCC(=O)N[C@@H](CCCNC(=N)N)C(=O)NCCN1CCC(NC(=O)C(=O)Nc2ccc(F)nc2)CC12CCCCC2 (stereo partly drawn)
5,> 100 µM,N=C(N)NCCCCC(=O)NCCN1CCC(NC(=O)C(=O)Nc2cncc(F)c2)CC12CCCCC2 (stereo not drawn)
6,> 100 µM,N=C(N)NCCCCC(=O)NCCN1CCC(NC(=O)CNc2ccc(Cl)cn2)CC1
7,> 100 µM,N=C(N)NCCCCC(=O)NCCN1CCC(NC(=O)C(=O)Nc2ccc(Cl)cn2)CC1
8,0.27 µM,"CC1(C)CC(NC(=O)C(=O)Nc2ccc(Cl)cc2)CC(C)(C)N1 [N-(4-chlorophenyl)-N'-(2,2,6,6-tetramethylpiperidin-4-yl)-oxalamide]"
